Measurements taken from patent US20250295658A1, “ANTIPARASITIC AGENTS AND METHODS” (Whitehead Institute for Biomedical Research, priority 2022, published 2025).

How the values were obtained:
[1] = test system: DD-BFD2, CST10-fLuc, pSAG1-nLuc reporter strain; assay: Firefly and nano-luciferase assays of the DD-BFD2, CST10-fLuc, pSAG1-nLuc reporter strain; type: cell-based, Toxoplasma; conditions: 3 μM shield-1
From the text: This strain is able to recapitulate the biology of both the acute tachyzoite stage as well as the chronic bradyzoite stage. Differentiation from the tachyzoite to bradyzoite stage is mediated through the expression of Bradyzoite Formation Deficient 2 (BFD2) tagged with a degradation domain. Under standard conditions, the degradation domain ensures BFD2 is degraded from parasites, maintaining them in the tachyzoite stage. Upon the addition of the small-molecule shield-1, BFD2 is stabilized and causes differentiation of parasites to the bradyzoite stage.^34 The engineered parasite strain allows the use of a dual-luciferase system to report on differentiation status and general parasite viability. Expression of firefly luciferase is driven by fusion via t2a peptide to the bradyzoite marker CST10, whereas expression of nano-luciferase is driven by the tachyzoite promoter SAG1. Addition of shield-1 is able to simultaneously increase the CST10 bradyzoite marker while decreasing the SAGI tachyzoite marker (FIGS. 2G-H). […] This enables examination of the chronic parasite state with minimal interference on the endogenous circuity. Chemical screens of this engineered strain can therefore identify compounds that bias parasite state either to the tachyzoite or bradyzoite stage, as well as compounds capable of killing both stages simultaneously. […]

Toxoplasma gondii [2] = assay: Plaque assays with DAHP and BH4; type: cell-based; conditions: FIG. 1F
Method: Plaque Assays with DAHP and BH4
RHAku80 were maintained for at least two passages in DMEM and HPLM prior to beginning the plaque assay. Confluent human fibroblasts were maintained in 6-well plates in either DMEM or HPLM for at least 24 h prior to the start of the assay. To begin the experiment, parasites maintained in DMEM and HPLM were syringe released and filtered through a […]. Parasites were then counted and diluted such that each well received 500 parasites. Wells were then treated with the indicated concentrations of DAHP or PBS vehicle. For the BH4 rescue experiments, wells received 50 μM BH4 or the equivalent volume of DMSO vehicle. Plaques were allowed to grow for 6 days prior to fixation. For fixation, wells were first washed with PBS, then fixed for 10 min at room temperature with 100% ethanol. Wells were then stained for 10 min with crystal violet (12.5 g crystal violet, 125 ml 100% ethanol, 500 ml 1% ammonium oxalate). Wells were then washed three times with water and allowed to dry overnight.

Toxoplasma gondii [3] = assay: Pyrimethamine/DAHP drug synergy lytic assays; type: cell-based; conditions: pyrimethamine in combination with 2.5 mM DAHP; FIGS. 1G-H
Method: Pyrimethamine/DAHP Drug Synergy Lytic Assays
96 well plates were utilized to generate 8-point dosage curves of parasites grown in various concentrations of pyrimethamine with and without 2.5 mM DAHP. At the start of the assay, prior to parasite harvest, 96 well plates containing confluent fibroblasts were set up with 1.33× the desired final drug concentrations in 150 μl of volume. This ensured that the addition of 50 μl of parasites would result in the desired 1× drug concentration of both pyrimethamine and DAHP. Wells designated as containing less than the maximum dosage of either drug (10 μg/ml pyrimethamine and 2.5 mM DAHP) received the equivalent volume of vehicle (ethanol for pyrimethamine, PBS for DAHP). Parasites were then force-lysed, filtered, and resuspended to a concentration of 5e5 parasites/ml. 50 μl of parasites were then added to each well, resulting in an infection of 2.5e4 parasites per well. Plates were then spun at 290 g for 5 min. Plates were then incubated for 3 days to allow for parasite plaquing. Plates were then washed with PBS followed by staining with crystal violet as conducted for plaque assays. Well staining was then quantified by plate reader at the 570 nm wavelength. […] Drug curves were then generated and IC50 values were calculated from biological triplicate experiments in GraphPad Prism 9.

NF54 P. falciparum = assay: SYBR Green I-based dose-response assay in Plasmodium falciparum; type: cell-based; conditions: atovaquone with 1 mM DAHP, FIGS. 2C-D
Method: The NF54 P. falciparum line was cultured and synchronized as described previously.^28,29 Cultures were kept at 37° C. in RPMI-1640 medium supplemented with 25 mM HEPES, 100 μM hypoxanthine, 0.5% Albumax II, 24 mM sodium bicarbonate, 25 μg/mL gentamicin (Life Technologies, Carlsbad, CA 11021-045) and gassed with 5% CO2, 1% O2, and 94% N2 mixture. Dose-Response Assay in Plasmodium falciparum A SYBR Green I-based assay was used to measure in vitro P. falciparum drug susceptibility.^30,31 Ring-stage NF54 parasites were seeded at 1% hematocrit and 1% starting parasitemia in 384-well black clear-bottom plates containing test compounds (stocks of 10 mM pyrimethamine, 0.1 mM atovaquone, and 10 mM DHA in DMSO) plated in triplicate in 12-point serial dilutions for 72 h. […] Lysis buffer (0.16% w/v saponin, 1.6% Triton X-100, 5 mM EDTA, and 20 mM Tris-HCl, pH 7.4) with a 1:1000 dilution of SYBR Green I fluorescent dye (Invitrogen) was added for at least 12 h, and fluorescence readings were taken (excitation at 494 nm, emission at 530 nm) using a SpectraMax M5 (Molecular Devices, Sunnyvale, CA) plate reader. IC50 values were calculated using a nonlinear regression curve fit in Graphpad Prism 9 in biological triplicate.

[4] = test system: C57BL/6J mouse embryonic fibroblasts; assay: Proliferation of mouse embryonic fibroblasts in DAHP treatment; type: cell-based; conditions: 5 mM DAHP, 48 hours; FIG. 2E
Method: Proliferation of Mouse Embryonic Fibroblasts in DAHP Treatment Twenty-thousand immortalized C57BL/6J mouse embryonic fibroblasts were plated in a well of a 6-well plate and treated with 5 mM DAHP or PBS vehicle. The cells were allowed to grow for 48 hours, then trypsinized and counted. Population doublings were calculated as follows: [formula] [formula]

[5] = cited from earlier work

Structure (SMILES) | CST10 bradyzoite marker (firefly luciferase reporter) ([1]; FIG. 2G) | SAG1 tachyzoite marker (nano-luciferase reporter) ([1]; FIG. 2H) | effect on parasite viability (plaque assay) (Toxoplasma gondii [2]; 2.5 mM DAHP) | parasite lytic cycle (plaque assay) (Toxoplasma gondii [2]; 5 mM DAHP) | antiparasitic effect of DAHP with exogenous BH4 (Toxoplasma gondii [2]; exogenous BH4 (50 μM)) | reduction in the pyrimethamine IC50 value (Toxoplasma gondii [3]) [%] | potentiating effect in combination with atovaquone (NF54 P. falciparum) | growth of a proliferative mouse fibroblast cell line (population doublings) [4] | solubility [5]
CC[C@H](C(=O)N1CCCC[C@H]1C(=O)O[C@H](CCc1ccc(OC)c(OC)c1)c1cccc(OCCN2CCOCC2)c1)c1cc(OC)c(OC)c(OC)c1 [shield-1] | increase | decreasing | – | – | – | – | – | – | –
Nc1cc(O)nc(N)n1 [DAHP, 2,4-diamino-6-hydroxypyrimidine] | – | – | no apparent effect | able to block the parasite lytic cycle | rescued | 70 | no potentiating effect | no effect | poor
